For this data set the following is noted: Crystal; visual observation.

The structures appear in SMILES notation. ± gives the expanded uncertainty stated by the source.

As for `Nc1cccnc1` [β-aminopyridine], the Normal melting temperature turned out to be 64.50 ± 0.5 °C.
